The values below come from ChEMBL document CHEMBL1743141, “Membrane transporters in drug development” (Nat Rev Drug Discov, 2010).

Peptide text beside a SMILES is read from it.

Type in all cases: ADME
Data set [1] addresses T1, Solute carrier family 15 member 1 (Homo sapiens, UniProt P46059).
T1 sequence (P46059 whole entry): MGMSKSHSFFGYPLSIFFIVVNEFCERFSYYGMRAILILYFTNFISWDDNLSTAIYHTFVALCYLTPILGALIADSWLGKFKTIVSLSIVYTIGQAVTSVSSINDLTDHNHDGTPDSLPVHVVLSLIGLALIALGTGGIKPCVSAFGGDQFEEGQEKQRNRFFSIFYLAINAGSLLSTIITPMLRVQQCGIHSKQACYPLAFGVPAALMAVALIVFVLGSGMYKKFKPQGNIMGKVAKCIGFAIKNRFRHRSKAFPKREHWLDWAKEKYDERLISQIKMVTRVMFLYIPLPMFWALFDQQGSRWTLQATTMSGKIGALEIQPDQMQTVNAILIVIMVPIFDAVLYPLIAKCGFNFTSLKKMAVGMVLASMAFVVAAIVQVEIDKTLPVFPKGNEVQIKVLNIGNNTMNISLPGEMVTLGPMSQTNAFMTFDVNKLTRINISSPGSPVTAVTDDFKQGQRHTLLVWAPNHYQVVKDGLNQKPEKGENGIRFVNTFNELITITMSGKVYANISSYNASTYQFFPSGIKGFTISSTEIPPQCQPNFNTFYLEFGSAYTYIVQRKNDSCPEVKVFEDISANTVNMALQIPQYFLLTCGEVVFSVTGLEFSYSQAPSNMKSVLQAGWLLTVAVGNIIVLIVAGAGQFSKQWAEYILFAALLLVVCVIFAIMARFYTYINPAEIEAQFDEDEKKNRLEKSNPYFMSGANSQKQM
Nature of the data set: Inhibitors of transporters of clinical importance in the absorption and disposition of drugs, PEPT1.

The target in data set [2] is T2, Solute carrier family 22 member 6 (Homo sapiens, UniProt Q4U2R8).
T2 sequence (Q4U2R8 whole entry): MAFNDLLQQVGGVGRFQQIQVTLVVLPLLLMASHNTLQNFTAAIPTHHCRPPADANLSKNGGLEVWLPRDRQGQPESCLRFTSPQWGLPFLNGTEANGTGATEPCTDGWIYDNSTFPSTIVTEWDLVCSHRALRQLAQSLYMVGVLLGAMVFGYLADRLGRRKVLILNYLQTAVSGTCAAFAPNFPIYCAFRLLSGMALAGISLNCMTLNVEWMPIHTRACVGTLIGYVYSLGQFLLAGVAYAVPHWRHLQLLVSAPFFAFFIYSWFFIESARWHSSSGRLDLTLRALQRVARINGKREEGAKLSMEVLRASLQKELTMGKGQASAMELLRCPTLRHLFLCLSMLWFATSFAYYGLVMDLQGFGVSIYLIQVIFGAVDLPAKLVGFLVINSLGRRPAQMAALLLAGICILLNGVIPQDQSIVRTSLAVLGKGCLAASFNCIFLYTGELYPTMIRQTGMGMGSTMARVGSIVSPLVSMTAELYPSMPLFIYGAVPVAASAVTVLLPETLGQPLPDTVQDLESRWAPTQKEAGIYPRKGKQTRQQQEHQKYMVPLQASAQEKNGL
The experiment in a line: Inhibitors of transporters of clinical importance in the absorption and disposition of drugs, OAT1.

For data set [3], the target named is T3, Organic anion transporter 3 (Homo sapiens, UniProt Q8TCC7).
T3 sequence (Q8TCC7 whole entry): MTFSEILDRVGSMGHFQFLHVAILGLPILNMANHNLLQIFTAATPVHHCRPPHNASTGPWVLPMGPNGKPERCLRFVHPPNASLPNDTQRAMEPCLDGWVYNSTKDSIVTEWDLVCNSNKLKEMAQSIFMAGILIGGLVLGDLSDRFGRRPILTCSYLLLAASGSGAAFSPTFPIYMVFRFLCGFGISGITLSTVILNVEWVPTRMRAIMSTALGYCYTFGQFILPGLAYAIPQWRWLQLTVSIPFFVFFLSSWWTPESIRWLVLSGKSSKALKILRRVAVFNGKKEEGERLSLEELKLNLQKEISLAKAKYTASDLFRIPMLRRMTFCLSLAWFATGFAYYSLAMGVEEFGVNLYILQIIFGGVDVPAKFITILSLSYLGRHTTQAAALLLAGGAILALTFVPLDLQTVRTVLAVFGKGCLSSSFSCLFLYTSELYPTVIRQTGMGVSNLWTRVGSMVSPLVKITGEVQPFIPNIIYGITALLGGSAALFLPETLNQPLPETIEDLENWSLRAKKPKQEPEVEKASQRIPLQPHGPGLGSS
Nature of the data set: Inhibitors of transporters of clinical importance in the absorption and disposition of drugs, OAT3.

Data set [4] deals with T4, Solute carrier organic anion transporter family member 1B1 (Homo sapiens, UniProt Q9Y6L6).
T4 sequence (Q9Y6L6 whole entry): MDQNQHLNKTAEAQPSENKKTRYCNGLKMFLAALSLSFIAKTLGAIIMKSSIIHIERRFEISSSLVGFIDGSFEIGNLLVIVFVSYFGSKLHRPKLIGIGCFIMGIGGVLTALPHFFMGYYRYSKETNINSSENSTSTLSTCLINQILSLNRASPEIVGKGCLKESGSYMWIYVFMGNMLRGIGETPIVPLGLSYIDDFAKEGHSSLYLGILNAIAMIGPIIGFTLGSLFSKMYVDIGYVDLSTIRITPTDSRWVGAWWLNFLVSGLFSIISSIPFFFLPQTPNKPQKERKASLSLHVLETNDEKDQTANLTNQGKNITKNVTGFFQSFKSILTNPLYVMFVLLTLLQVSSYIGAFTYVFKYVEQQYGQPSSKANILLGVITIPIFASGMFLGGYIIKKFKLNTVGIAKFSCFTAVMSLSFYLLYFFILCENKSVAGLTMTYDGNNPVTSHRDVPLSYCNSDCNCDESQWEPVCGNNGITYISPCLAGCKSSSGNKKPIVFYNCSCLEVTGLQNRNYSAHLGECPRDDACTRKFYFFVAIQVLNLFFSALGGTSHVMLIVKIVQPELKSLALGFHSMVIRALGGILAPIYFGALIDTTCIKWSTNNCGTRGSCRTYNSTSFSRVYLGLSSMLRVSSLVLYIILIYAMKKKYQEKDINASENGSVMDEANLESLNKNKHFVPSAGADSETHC
The experiment in a line: Inhibitors of transporters of clinical importance in the absorption and disposition of drugs, OATP1B1.

For data set [5], the target named is T5, Solute carrier organic anion transporter family member 1B3 (Homo sapiens, UniProt Q9NPD5).
T5 sequence (Q9NPD5 whole entry): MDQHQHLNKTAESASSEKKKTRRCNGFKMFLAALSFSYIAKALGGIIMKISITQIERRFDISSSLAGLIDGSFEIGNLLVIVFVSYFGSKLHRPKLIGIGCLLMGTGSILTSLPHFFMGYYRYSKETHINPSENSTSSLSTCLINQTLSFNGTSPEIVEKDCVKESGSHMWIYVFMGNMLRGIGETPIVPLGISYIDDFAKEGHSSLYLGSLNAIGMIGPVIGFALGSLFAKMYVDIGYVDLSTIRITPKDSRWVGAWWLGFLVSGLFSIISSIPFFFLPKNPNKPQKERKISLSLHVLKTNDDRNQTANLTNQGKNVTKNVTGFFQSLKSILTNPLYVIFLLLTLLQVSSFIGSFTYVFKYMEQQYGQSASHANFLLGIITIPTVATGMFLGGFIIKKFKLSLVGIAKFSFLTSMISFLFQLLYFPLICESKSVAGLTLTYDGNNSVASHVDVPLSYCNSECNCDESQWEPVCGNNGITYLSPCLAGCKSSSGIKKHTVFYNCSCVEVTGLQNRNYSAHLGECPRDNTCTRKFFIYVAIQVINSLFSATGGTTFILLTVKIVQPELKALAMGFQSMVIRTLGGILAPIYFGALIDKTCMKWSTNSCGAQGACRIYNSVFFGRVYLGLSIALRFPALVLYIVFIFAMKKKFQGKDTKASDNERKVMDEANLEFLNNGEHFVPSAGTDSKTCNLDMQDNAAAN
The experiment in a line: Inhibitors of transporters of clinical importance in the absorption and disposition of drugs, OATP1B3.

Data set [6] deals with T6, Solute carrier organic anion transporter family member 1A2 (Homo sapiens, UniProt P46721).
T6 sequence (P46721 whole entry): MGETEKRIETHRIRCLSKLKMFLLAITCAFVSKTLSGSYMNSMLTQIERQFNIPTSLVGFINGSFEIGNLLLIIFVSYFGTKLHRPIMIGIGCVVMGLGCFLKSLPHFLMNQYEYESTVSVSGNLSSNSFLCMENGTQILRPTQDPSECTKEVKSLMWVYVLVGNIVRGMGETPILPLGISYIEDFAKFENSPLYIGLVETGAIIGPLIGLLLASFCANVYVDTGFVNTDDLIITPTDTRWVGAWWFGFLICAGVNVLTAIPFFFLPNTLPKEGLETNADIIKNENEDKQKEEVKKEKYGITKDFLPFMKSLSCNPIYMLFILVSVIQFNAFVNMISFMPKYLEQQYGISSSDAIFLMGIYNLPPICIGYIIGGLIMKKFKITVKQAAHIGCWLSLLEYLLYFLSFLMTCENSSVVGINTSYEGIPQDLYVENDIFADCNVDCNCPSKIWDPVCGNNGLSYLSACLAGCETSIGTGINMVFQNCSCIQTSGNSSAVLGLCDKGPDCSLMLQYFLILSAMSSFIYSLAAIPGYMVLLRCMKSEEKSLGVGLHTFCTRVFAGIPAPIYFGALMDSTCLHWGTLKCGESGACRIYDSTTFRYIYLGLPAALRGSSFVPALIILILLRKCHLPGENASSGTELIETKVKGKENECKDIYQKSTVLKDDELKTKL
Nature of the data set: Inhibitors of transporters of clinical importance in the absorption and disposition of drugs, OATP1A2.

The target of data set [7] is T7, Solute carrier organic anion transporter family member 2B1 (Homo sapiens, UniProt O94956).
T7 sequence (O94956 whole entry): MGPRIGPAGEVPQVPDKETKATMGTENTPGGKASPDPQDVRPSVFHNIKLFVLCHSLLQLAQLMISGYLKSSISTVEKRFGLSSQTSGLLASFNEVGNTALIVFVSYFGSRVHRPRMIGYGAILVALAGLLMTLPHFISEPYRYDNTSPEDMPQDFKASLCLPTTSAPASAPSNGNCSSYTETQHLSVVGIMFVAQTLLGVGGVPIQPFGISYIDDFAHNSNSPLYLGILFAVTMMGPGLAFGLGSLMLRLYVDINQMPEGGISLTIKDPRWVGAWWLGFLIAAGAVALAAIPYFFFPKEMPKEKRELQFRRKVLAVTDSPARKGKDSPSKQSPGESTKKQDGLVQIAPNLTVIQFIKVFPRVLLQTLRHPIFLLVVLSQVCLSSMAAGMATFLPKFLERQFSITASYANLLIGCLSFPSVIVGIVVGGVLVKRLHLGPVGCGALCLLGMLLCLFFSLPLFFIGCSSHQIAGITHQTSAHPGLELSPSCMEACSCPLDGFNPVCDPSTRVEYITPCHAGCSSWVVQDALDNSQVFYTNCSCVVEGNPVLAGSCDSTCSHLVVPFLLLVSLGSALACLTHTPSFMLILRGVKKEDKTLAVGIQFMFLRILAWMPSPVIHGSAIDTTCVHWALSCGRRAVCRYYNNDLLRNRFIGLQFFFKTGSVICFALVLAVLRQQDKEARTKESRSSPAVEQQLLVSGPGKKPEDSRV
Nature of the data set: Inhibitors of transporters of clinical importance in the absorption and disposition of drugs, OATP2B1.

A further data set addresses Bile salt export pump (Homo sapiens, UniProt O95342). Nature of the data set: Inhibitors of transporters of clinical importance in the absorption and disposition of drugs, BSEP.

Chain of Bile salt export pump (O95342 whole entry): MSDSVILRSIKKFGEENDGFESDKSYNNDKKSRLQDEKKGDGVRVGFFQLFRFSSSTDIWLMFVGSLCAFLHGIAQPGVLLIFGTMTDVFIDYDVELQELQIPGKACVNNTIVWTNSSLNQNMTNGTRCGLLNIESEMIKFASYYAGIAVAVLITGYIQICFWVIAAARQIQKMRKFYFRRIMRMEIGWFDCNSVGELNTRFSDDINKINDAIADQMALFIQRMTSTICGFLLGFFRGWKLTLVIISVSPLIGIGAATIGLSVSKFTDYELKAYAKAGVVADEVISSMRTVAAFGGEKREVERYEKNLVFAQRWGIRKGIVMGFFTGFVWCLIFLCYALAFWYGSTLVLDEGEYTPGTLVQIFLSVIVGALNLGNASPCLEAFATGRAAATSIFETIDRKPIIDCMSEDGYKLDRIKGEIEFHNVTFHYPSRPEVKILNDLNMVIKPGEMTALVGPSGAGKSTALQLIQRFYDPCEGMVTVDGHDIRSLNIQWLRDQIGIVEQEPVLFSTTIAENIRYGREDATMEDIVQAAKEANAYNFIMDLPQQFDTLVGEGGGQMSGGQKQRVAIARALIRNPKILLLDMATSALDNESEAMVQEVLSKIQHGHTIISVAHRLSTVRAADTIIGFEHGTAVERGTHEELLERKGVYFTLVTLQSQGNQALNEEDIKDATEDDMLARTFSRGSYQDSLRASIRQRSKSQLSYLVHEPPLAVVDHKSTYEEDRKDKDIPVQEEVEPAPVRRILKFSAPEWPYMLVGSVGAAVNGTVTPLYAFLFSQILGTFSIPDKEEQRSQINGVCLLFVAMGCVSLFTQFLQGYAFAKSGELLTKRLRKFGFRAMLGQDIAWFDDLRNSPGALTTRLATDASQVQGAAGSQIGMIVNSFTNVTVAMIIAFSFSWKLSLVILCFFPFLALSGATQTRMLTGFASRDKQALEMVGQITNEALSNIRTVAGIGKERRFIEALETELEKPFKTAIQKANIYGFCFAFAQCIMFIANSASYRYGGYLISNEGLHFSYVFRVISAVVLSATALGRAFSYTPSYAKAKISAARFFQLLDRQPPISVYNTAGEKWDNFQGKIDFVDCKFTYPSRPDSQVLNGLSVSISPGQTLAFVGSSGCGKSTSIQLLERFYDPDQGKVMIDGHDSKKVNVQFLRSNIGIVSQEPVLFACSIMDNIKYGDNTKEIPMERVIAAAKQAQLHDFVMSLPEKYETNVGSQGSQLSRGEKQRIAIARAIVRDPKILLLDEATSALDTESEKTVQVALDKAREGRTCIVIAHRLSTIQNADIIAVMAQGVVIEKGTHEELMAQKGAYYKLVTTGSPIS

With `NCC(=O)N1CCC[C@H]1C(=O)O` [GLYCYL PROLINE] (H-Gly-Pro-OH), the Activity entry in data set [1] is “transporter inhibitor”.
As for `CO[C@@H]1[C@@H](OC(N)=O)[C@@H](O)[C@H](Oc2ccc3c(O)c(NC(=O)c4ccc(O)c(CC=C(C)C)c4)c(=O)oc3c2C)OC1(C)C` [NOVOBIOCIN], the Activity entry in data set [2] and in data set [3] was “transporter inhibitor” each time.
As to `CO[C@H]1/C=C/O[C@@]2(C)Oc3c(C)c(O)c4c(O)c(c(/C=N/N5CCN(C)CC5)c(O)c4c3C2=O)NC(=O)/C(C)=C\C=C\[C@H](C)[C@H](O)[C@@H](C)[C@@H](O)[C@@H](C)[C@H](OC(C)=O)[C@@H]1C` [RIFAMPIN], the Activity entry (in data set [4]; in data set [5]; in data set [6]; in data set [7]; on Bile salt export pump) was “transporter inhibitor” each time.
